The values that follow come from patent publication US4900748A (priority 1988, dated 1990).

Like-named read-outs stand apart in the source and are kept apart here.

The target in test [1] is Butyrylcholinesterase (Cortex) (Homo sapiens, UniProt P06276). Kind of test: biochemical.
Test [2] has as its target Butyrylcholinesterase (Plasma) (Homo sapiens, UniProt P06276). The experiment in a line: biochemical.
The target of test [3] is Acetylcholinesterase (Eel) (Electrophorus electricus, UniProt O42275). Kind of test: biochemical.
Test [4] addresses Acetylcholinesterase (RBC) (Homo sapiens, UniProt P22303). The experiment in a line: biochemical.
In test [5] the target is Acetylcholinesterase (Caudate) (Homo sapiens, UniProt P22303). The experiment in a line: biochemical.
Test [6] concerns the target Acetylcholinesterase (Cortex) (Homo sapiens, UniProt P22303). Kind of test: biochemical.
Test [7] deals with acetyl- and butyryl-cholinesterase. In kind it is biochemical.
The next test has as its system acetylcholinesterase. It is filed as biochemical. To be noted: for IC50: read-out: IC50, antiacetylcholinesterase (approximate).
For a further test, the system named is neuromuscular AChR. To be noted: cited from earlier work.
In another test the test system is butyrylcholinesterase. In kind it is biochemical.
For another test, the system named is nicotinic AChR. The settings on record: cited from earlier work.
[8] abbreviates: read-out: IC50 Acetylcholinesterase Cortex.
Where [9] appears, read: read-out: IC50 Acetylcholinesterase Eel.
Setting [10] is: read-out: IC50 Acetylcholinesterase RBC.
Where [11] appears, read: read-out: IC50 Acetylcholinesterase Caudate.
[12] abbreviates: read-out: IC50 Butyrylcholinesterase Cortex.
Setting [13] is: read-out: IC50 Butyrylcholinesterase Plasma.

Chain of Acetylcholinesterase (RBC) (P22303-2 with tags, fused parts or gaps limits assumed): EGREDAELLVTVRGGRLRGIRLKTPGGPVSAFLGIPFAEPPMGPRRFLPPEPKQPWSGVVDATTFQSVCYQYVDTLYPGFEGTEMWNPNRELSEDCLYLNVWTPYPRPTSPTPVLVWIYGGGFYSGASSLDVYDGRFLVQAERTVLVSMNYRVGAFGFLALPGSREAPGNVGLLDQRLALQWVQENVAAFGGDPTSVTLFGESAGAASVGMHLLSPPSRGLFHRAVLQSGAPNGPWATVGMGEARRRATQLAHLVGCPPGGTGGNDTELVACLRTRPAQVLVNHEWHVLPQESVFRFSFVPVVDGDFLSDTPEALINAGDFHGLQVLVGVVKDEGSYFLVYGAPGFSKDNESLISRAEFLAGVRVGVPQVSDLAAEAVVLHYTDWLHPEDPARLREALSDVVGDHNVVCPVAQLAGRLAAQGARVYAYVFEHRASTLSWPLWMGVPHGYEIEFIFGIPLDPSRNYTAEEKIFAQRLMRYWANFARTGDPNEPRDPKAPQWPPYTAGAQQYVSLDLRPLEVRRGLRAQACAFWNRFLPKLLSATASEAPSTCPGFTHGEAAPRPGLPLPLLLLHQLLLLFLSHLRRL
Chain of Acetylcholinesterase (Caudate) (P22303 32-614): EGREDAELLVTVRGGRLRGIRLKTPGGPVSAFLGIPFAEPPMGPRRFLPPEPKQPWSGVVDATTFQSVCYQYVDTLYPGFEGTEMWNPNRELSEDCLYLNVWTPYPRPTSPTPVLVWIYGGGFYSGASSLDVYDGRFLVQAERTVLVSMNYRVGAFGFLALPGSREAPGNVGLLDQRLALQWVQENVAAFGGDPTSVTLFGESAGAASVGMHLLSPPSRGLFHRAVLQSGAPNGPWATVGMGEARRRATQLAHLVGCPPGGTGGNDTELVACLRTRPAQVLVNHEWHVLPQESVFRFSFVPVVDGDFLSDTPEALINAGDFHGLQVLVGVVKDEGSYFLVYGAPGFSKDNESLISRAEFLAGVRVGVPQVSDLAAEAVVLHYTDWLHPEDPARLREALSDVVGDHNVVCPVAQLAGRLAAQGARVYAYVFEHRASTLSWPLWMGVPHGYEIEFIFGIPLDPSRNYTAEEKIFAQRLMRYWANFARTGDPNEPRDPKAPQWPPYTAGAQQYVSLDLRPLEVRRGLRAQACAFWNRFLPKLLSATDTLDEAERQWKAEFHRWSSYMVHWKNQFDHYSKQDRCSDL
Chain of Acetylcholinesterase (Cortex) (P22303 32-614): as above
Chain of Acetylcholinesterase (Eel) (O42275 24-633): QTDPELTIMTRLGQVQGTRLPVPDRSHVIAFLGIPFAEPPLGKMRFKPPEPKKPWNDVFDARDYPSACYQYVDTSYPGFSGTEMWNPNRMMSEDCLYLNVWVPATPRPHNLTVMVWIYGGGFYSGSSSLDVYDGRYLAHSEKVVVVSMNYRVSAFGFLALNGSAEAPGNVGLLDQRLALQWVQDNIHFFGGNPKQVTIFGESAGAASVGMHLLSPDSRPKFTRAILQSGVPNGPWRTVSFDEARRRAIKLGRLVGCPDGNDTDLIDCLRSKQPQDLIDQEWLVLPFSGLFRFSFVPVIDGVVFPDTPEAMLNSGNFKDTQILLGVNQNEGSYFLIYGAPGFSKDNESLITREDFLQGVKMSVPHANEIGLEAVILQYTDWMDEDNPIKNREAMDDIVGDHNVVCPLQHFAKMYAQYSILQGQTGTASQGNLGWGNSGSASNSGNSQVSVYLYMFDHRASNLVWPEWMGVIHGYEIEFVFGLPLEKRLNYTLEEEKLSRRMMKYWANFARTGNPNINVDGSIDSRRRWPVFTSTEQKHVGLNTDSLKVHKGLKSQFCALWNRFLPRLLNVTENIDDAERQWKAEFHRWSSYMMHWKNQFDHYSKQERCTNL
Chain of Butyrylcholinesterase (Plasma) (P06276 29-602): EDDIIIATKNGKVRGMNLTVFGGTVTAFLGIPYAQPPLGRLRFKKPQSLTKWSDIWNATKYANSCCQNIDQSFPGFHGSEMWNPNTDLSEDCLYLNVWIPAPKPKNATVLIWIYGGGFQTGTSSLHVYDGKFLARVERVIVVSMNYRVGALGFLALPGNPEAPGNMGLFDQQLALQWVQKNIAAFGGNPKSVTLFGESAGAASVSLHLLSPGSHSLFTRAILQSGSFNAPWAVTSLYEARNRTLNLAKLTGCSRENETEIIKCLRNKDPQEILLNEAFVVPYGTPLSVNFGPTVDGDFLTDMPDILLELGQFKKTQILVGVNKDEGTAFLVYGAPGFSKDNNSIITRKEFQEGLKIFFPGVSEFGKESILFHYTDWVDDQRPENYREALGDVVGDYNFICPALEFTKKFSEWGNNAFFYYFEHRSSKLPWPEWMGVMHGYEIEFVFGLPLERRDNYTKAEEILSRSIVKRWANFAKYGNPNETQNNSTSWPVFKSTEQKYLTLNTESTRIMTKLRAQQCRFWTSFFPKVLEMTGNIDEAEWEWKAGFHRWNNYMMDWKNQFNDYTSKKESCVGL
Chain of Butyrylcholinesterase (Cortex) (P06276 29-602): as above

Consider `CN1CC[C@@]2(C)c3cc(O)ccc3N(C)[C@@H]12` (relative stereo) [(+/-)eseroline, reference compound], for which the IC50 in test [1], in test [2], in [3], in [4] and in [5] was more than 10 µM in each case.

As for `CNC(=O)Oc1ccc2c(c1)C1(C)CC[N+](C)(C)C1N2C` (single isomer, unassigned) [YU-117, methosulfate of (-)physostigmine], the IC50 came out at 0.0371 ± 0.0066 µM in [6] (setting [8]), 0.0335 ± 0.0006 µM in test [3] (setting [9]), 0.0294 ± 0.0052 µM in [4] (setting [10]) and 0.0283 ± 0.0037 µM in test [5] (setting [11]). Moreover, the “specificity acetyl- versus butyryl-cholinesterase” value in test [7] was “more potent against acetylcholinesterase than against butyrylcholinesterase”. Also, the “antiacetylcholinesterase potency in words” value in the test on acetylcholinesterase was “as potent against acetylcholinesterase as physostigmine itself”.

Regarding `CN1CC[C@]2(C)c3cc(O)ccc3N(C)[C@H]12` [(+)eseroline, reference compound], the IC50 in test [1], in test [2], in test [3], in [4] and in [5] was more than 10 µM throughout.

On to `CNC(=O)Oc1ccc2c(c1)[C@]1(C)CCN(C)[C@@H]1N2C` [(-) physo, (-)-physostigmine], for which the “properties at the neuromuscular AChR” value with neuromuscular AChR is recorded as “blocking as well as agonist properties”.

With `CN1CC[C@@]2(C)c3cc(O)ccc3N(C)[C@@H]12` [(-)eseroline, (-)-eseroline, reference compound], the IC50 in [1], in [2], in [3], in [4] and in test [5] was more than 10 µM throughout.

The compound `C=CC[N+](C)(C)c1ccc(CCC(=O)CCc2ccc([N+](C)(C)CC=C)cc2)cc1` [BW284c51, reference compound] had an IC50 in test [3] of 0.0073 µM.

Regarding `CN1CC[C@@]2(C)c3cc(OC(=O)NCc4ccccc4)ccc3N(C)[C@@H]12` [YU-69-1, eseroline benzylcarbamate], the half-inhibitory concentration (IC50) in test [6] is 0.024 ± 0.005 µM; in test [1], 0.02 ± 0.011 µM; in test [2], 0.0027 ± 0.0016 µM; in test [3], 0.46 ± 0.08 µM; in test [4], 0.026 ± 0.008 µM; in [5], 0.027 ± 0.01 µM.

Regarding `CCCCCCCCNC(=O)Oc1ccc2c(c1)[C@]1(C)CCN(C)[C@@H]1N2C` [YU-71, eseroline octylcarbamate], the results for the IC50 in test [1] and in test [2] were 0.0087 ± 0.0037 µM and 0.0036 ± 0.001 µM, respectively.

For `CN1CC[C@@]2(C)c3cc(OC(=O)Nc4ccccc4)ccc3N(C)[C@@H]12` [YU-79, eseroline phenylcarbamate], the IC50 in test [6] (setting [8]) is 0.036 ± 0.003 µM; in [1] (setting [12]), 2.5 µM; at acetylcholinesterase, approximately 0.03 µM; in test [2] (setting [13]), 1.3 µM; in test [3] (setting [9]), 0.35 ± 0.09 µM; in test [4] (setting [10]), 0.024 ± 0.006 µM. Besides, the IC50 in test [5] (setting [11]) is 0.021 ± 0.001 µM. Further, the “specificity acetyl- versus butyryl-cholinesterase” value in test [7] is recorded as “relatively specific for acetyl- rather than butyryl-cholinesterase”.

On to `CNC(=O)Oc1ccc2c(c1)[C@]1(C)CCN[C@@H]1N2C` [YU-96, N--norphysostigmine], for which, in test [7], the “specificity acetyl- versus butyryl-cholinesterase” value is “equipotent versus both acetyl- and butyryl-cholinesterase”. In addition, in the test with acetylcholinesterase, the “antiacetylcholinesterase potency in words” value was “as potent against acetylcholinesterase as physostigmine itself”.

With `C=CCN1CC[C@@]2(C)c3cc(OC(=O)NC)ccc3N(C)[C@@H]12` [YU-110, N--allyl physostigmine], the IC50 came out at 0.0156 ± 0.0069 µM in [1] and 0.00265 ± 0.00201 µM in test [2]. Besides, in [7], the “specificity acetyl- versus butyryl-cholinesterase” value was “equipotent versus both acetyl- and butyryl-cholinesterase”. Moreover, the “antiacetylcholinesterase potency in words” value with acetylcholinesterase was “as potent against acetylcholinesterase as physostigmine itself”.

Consider `CNC(=O)Oc1ccc2c(c1)[C@]1(C)CCN(CCc3ccccc3)[C@@H]1N2C` [YU-112, N--phenylethyl physostigmine], for which the figures for the half-maximal inhibitory concentration (IC50) in test [6], in test [4] and in test [5] were 0.155 ± 0.028 µM, 0.213 ± 0.038 µM and 0.191 ± 0.056 µM, respectively.

For `COc1ccc(NC(=O)Oc2ccc3c(c2)[C@]2(C)CCN(C)[C@@H]2N3C)cc1` [YU-114, methoxyphenyl carbamoyleseroline], the IC50 in [1] was found to be 0.224 ± 0.047 µM; in [2], 0.0276 ± 0.0018 µM; in [3], 1.68 ± 0.38 µM. Besides, the “specificity acetyl- versus butyryl-cholinesterase” value in test [7] is reported as “approximately equally potent against both enzymes”. Moreover, the “reduction of antiacetylcholinesterase potency” value with acetylcholinesterase is “approximately 10 fold”. In addition, the “increase of antibutyrylcholinesterase potency” value in the test with butyrylcholinesterase is listed as “ten-fold”.

For `CN1CC[C@@]2(C)c3cc(OC(=O)Nc4ccc(Cl)cc4)ccc3N(C)[C@@H]12` [YU-116, chlorophenyl carbamoyleseroline], the IC50 in test [6] is 0.417 ± 0.088 µM; in test [1], 4.46 ± 1.29 µM; at acetylcholinesterase, approximately 0.5 µM; in test [2], 4 ± 0.052 µM; in test [3], 1.8 ± 0.085 µM; in test [4] it was 0.654 ± 0.032 µM. The compound further yielded a half-maximal inhibitory concentration (IC50) in test [5] of 0.448 ± 0.029 µM. The “specificity acetyl- versus butyryl-cholinesterase” value in [7] is on record as “relatively specific for acetyl- rather than butyryl-cholinesterase”. Also, the “antiacetylcholinesterase potency in words” value with acetylcholinesterase is “much less against acetylcholinesterase”. The “reduction of antiacetylcholinesterase potency” value with acetylcholinesterase is reported as “approximately 10 fold”.

In the case of `CCCCNC(=O)Oc1ccc2c(c1)[C@]1(C)CCN(C)[C@@H]1N2C` [YU-120, butylcabamoyl eseroline], the IC50 was 0.0208 ± 0.0037 µM in test [6]; 0.016 ± 0.0044 µM in test [1]; 0.00413 ± 0.00125 µM in test [2]; 0.152 ± 0.009 µM in test [3]; 0.0176 ± 0.0091 µM in test [4]; 0.0203 ± 0.0068 µM in test [5]. Further, the “effect of shortening the side chain on potency against acetyl- or butyryl-cholinesterase” value in [7] is “does not alter the potency of the compound against either acetyl- or butyryl-cholinesterase”.

On to `CC(C)NP(=O)(NC(C)C)OP(=O)(NC(C)C)NC(C)C` [iso-OMPA, reference compound], for which the IC50 in [3] was more than 1000 µM.

Regarding `c1ccc(C2(N3CCCCC3)CCCCC2)cc1` [phencyclidine], in the test on nicotinic AChR, the “modification of AChR activation” value is on record as “modify noncompetitively the activation of the AChR”.

With Ethoprop [reference compound], the IC50 in [1] (setting [12]) was 0.21 µM; in [2] (setting [13]) it was 0.3 µM; in [3] (setting [9]), 120 µM.
